Test results as given in paper PMC10301922, “Anti-Oxidant, Anti-Mutagenic Activity and Safety Evaluation of Antrocin” (Toxics, 2023).
Values joined by “and” are separate entries in the source; they are usually repeats but may differ in a detail not shown here. Equal entries are not always repeated.

Assays:
[1] = system: Sprague Dawley rats; assay: 28-day oral toxicity test: absolute organ weight
[2] = system: Salmonella typhimurium TA1535; assay: Antimutagenicity test, TA1535
[3] = system: lung cancer tumor xenografts; design: method as in PMID 23880305; settings: 5 mg/kg/day intraperitoneal; cited from earlier work
[4] = 28-day oral toxicity test: body weight; type: in vivo
[5] = Total polyphenol content; settings: 10 mg/mL antrocin
Experimental: We added 40–50 μL of sample to a 96-well plate and made it up to 100 μL with ddH2O. For each sample, a parallel sample was prepared as a sample background control. Vanillic acid was used as a positive control. We added 50 μL of 50 mM vanillic acid solution per well to the desired wells and made it up to 100 μL with ddH2O. We adjusted the volume of all standard curves to 100 µL with ddH2O. We then added 20 μL PC (Phenolic Compounds) Probe to the standard curve and sample reaction wells, and 20 μL PC Assay Buffer to the sample background wells. For standard curve preparation, we added 0, 2, 4, 6, 8, and 10 μL of 1 mM catechin standards to clear 96-well plates to generate 0, 2, 4, 6, 8, and 10 nmol/well catechin standard, respectively. We adjusted the volume of all standard curves to 100 µL with ddH2O. […] The absorbance was measured at 480 nm.
We subtracted the 0 nmol standard OD480 value from all standard curve readings and drew a catechin standard curve. If the sample background well reads were significant, the sample background control reads were subtracted from their paired sample reads. […]
B stands for the amount of diazo chromophore, calculated from the standard curve (nmol of catechin); D stands for the sample dilution factor (for undiluted samples, D = 1); V stands for the volume of sample added to the well (in µL).

[6] = female rats, 7.5 mg/kg oral 28 d
[7] = female rats, 37.5 mg/kg oral 28 d
[8] = male rats, 37.5 mg/kg oral 28 d
[9] = TA1535, with S9, mutagen 2-AA 25 μg/plate, antrocin 0.025 mg/plate
[10] = TA1535, with S9, mutagen 2-AA 25 μg/plate, antrocin 0.05 mg/plate
[11] = TA1535, with S9, mutagen 2-AA 25 μg/plate, antrocin […]
[12] = TA1535, without S9, mutagen sodium azide 5 μg/plate, antrocin 0.025 mg/plate
[13] = TA1535, without S9, mutagen sodium azide 5 μg/plate, antrocin 0.05 mg/plate
[14] = TA1535, without S9, mutagen sodium azide 5 μg/plate, antrocin […]

C=C1CC[C@H]2C(C)(C)CCC[C@@]23C(=O)OC[C@@H]13 [Antrocin, (-)-Antrocin]
Testis/Ovary ([1]; female rats (ovary), 7.5 mg/kg oral 28 d): 0.07 ± 0.02 g
Testis/Ovary ([1]; female rats (ovary), 37.5 mg/kg oral 28 d): 0.10 ± 0.01 g
Adrenal [1, 6]: 0.05 ± 0.01 g
Brain [1, 6]: 1.9 ± 0.1 g
Heart [1, 6]: 0.9 ± 0.1 g
Kidney [1, 6]: 1.8 ± 0.1 g
Liver [1, 6]: 8.5 ± 0.7 g
Spleen [1, 6]: 0.4 ± 0.1 g
Thymus [1, 6]: 0.4 ± 0.1 g
Adrenal [1, 7]: 0.05 ± 0.01 g
Brain [1, 7]: 2.0 ± 0.1 g
Heart [1, 7]: 1.0 ± 0.1 g
Kidney [1, 7]: 1.7 ± 0.1 g
Liver [1, 7]: 7.8 ± 0.5 g
Spleen [1, 7]: 0.4 ± 0.0 g
Thymus [1, 7]: 0.4 ± 0.1 g
Testis/Ovary ([1]; male rats (testis), 7.5 mg/kg oral 28 d): 3.1 ± 0.2 g
Testis/Ovary ([1]; male rats (testis), 37.5 mg/kg oral 28 d): 3.2 ± 0.2 g
Adrenal ([1]; male rats, 7.5 mg/kg oral 28 d): 0.05 ± 0.01 g
Brain ([1]; male rats, 7.5 mg/kg oral 28 d): 2.1 ± 0.2 g
Heart ([1]; male rats, 7.5 mg/kg oral 28 d): 1.3 ± 0.2 g
Kidney ([1]; male rats, 7.5 mg/kg oral 28 d): 2.8 ± 0.4 g
Liver ([1]; male rats, 7.5 mg/kg oral 28 d): 12.2 ± 1.9 g
Spleen ([1]; male rats, 7.5 mg/kg oral 28 d): 0.6 ± 0.1 g
Thymus ([1]; male rats, 7.5 mg/kg oral 28 d): 0.6 ± 0.1 g
Adrenal [1, 8]: 0.06 ± 0.00 g
Brain [1, 8]: 2.0 ± 0.1 g
Heart [1, 8]: 1.3 ± 0.2 g
Kidney [1, 8]: 2.7 ± 0.2 g
Liver [1, 8]: 11.1 ± 1.2 g
Spleen [1, 8]: 0.6 ± 0.1 g
Thymus [1, 8]: 0.4 ± 0.1 g
Inhibition (%) of mutagenicity [2, 9]: 20.49%
Number of Revertant [2, 9]: 217.3 ± 10.2 Colony/Plate
Inhibition (%) of mutagenicity [2, 10]: 33.25%
Number of Revertant [2, 10]: 184.3 ± 3.8 Colony/Plate
Inhibition (%) of mutagenicity [2, 11]: 8.63%
Number of Revertant [2, 11]: 248.0 ± 9.5 Colony/Plate
Inhibition (%) of mutagenicity [2, 12]: 16.74%
Number of Revertant [2, 12]: 1095.0 ± 28.0 Colony/Plate
Inhibition (%) of mutagenicity [2, 13]: 25.80%
Number of Revertant [2, 13]: 977.0 ± 18.1 Colony/Plate
Inhibition (%) of mutagenicity [2, 14]: 4.40%
Number of Revertant [2, 14]: 1255.7 ± 47.7 Colony/Plate
growth of lung cancer tumor xenografts [3]: significantly suppressed the growth
Body Weight ([4]; female rats, 7.5 mg/kg oral, 0-Day): 163.3 ± 6.3 g
Body Weight ([4]; female rats, 7.5 mg/kg oral, 7-Day): 190.0 ± 9.0 g
Body Weight Gain ([4]; female rats, 7.5 mg/kg oral, 7-Day (7th − 0th)): 26.7 ± 5.6 g
Body Weight ([4]; female rats, 7.5 mg/kg oral, 14-Day): 212.9 ± 12.1 g
Body Weight Gain ([4]; female rats, 7.5 mg/kg oral, 14-Day (14th − 7th)): 22.8 ± 6.0 g
Body Weight ([4]; female rats, 7.5 mg/kg oral, 21-Day): 229.3 ± 14.6 g
Body Weight Gain ([4]; female rats, 7.5 mg/kg oral, 21-Day (21st − 14th)): 16.4 ± 5.2 g
Body Weight ([4]; female rats, 7.5 mg/kg oral, 28-Day): 246.6 ± 21.7 g
Body Weight Gain ([4]; female rats, 7.5 mg/kg oral, 28-Day (28th − 21st)): 17.3 ± 7.9 g
Body Weight ([4]; female rats, 37.5 mg/kg oral, 0-Day): 162.4 ± 6.3 g
Body Weight ([4]; female rats, 37.5 mg/kg oral, 7-Day): 188.5 ± 7.9 g
Body Weight Gain ([4]; female rats, 37.5 mg/kg oral, 7-Day (7th − 0th)): 26.1 ± 4.1 g
Body Weight ([4]; female rats, 37.5 mg/kg oral, 14-Day): 212.0 ± 7.0 g
Body Weight Gain ([4]; female rats, 37.5 mg/kg oral, 14-Day (14th − 7th)): 23.4 ± 3.6 g
Body Weight ([4]; female rats, 37.5 mg/kg oral, 21-Day): 230.1 ± 9.7 g
Body Weight Gain ([4]; female rats, 37.5 mg/kg oral, 21-Day (21st − 14th)): 18.1 ± 5.0 g
Body Weight ([4]; female rats, 37.5 mg/kg oral, 28-Day): 241.7 ± 13.6 g
Body Weight Gain ([4]; female rats, 37.5 mg/kg oral, 28-Day (28th − 21st)): 11.6 ± 6.3 g
Body Weight ([4]; male rats, 7.5 mg/kg oral, 0-Day): 181.4 ± 5.1 g
Body Weight ([4]; male rats, 7.5 mg/kg oral, 7-Day): 237.9 ± 13.6 g
Body Weight Gain ([4]; male rats, 7.5 mg/kg oral, 7-Day (7th − 0th)): 56.5 ± 10.1 g
Body Weight ([4]; male rats, 7.5 mg/kg oral, 14-Day): 295.0 ± 22.5 g
Body Weight Gain ([4]; male rats, 7.5 mg/kg oral, 14-Day (14th − 7th)): 57.1 ± 8.9 g
Body Weight ([4]; male rats, 7.5 mg/kg oral, 21-Day): 349.5 ± 34.3 g
Body Weight Gain ([4]; male rats, 7.5 mg/kg oral, 21-Day (21st − 14th)): 54.5 ± 12.4 g
Body Weight ([4]; male rats, 7.5 mg/kg oral, 28-Day): 389.6 ± 46.6 g
Body Weight Gain ([4]; male rats, 7.5 mg/kg oral, 28-Day (28th − 21st)): 40.1 ± 12.5 g
Body Weight ([4]; male rats, 37.5 mg/kg oral, 0-Day): 183.9 ± 9.0 g
Body Weight ([4]; male rats, 37.5 mg/kg oral, 7-Day): 235.6 ± 9.6 g
Body Weight Gain ([4]; male rats, 37.5 mg/kg oral, 7-Day (7th − 0th)): 51.8 ± 4.7 g
Body Weight ([4]; male rats, 37.5 mg/kg oral, 14-Day): 289.0 ± 17.3 g
Body Weight Gain ([4]; male rats, 37.5 mg/kg oral, 14-Day (14th − 7th)): 53.4 ± 13.9 g
Body Weight ([4]; male rats, 37.5 mg/kg oral, 21-Day): 332.3 ± 21.0 g
Body Weight Gain ([4]; male rats, 37.5 mg/kg oral, 21-Day (21st − 14th)): 43.2 ± 7.7 g
Body Weight ([4]; male rats, 37.5 mg/kg oral, 28-Day): 367.6 ± 30.6 g
Body Weight Gain ([4]; male rats, 37.5 mg/kg oral, 28-Day (28th − 21st)): 35.3 ± 12.9 g
Total Phenolic Contents (mM Catechin Equivalents) [5]: 0.016 ± 0.000 mM Catechin equivalents and 0.016 ± 0.000 ^1 mM Catechin equivalents
